Test results taken from publication PMC6130489, “Caffeic acid methyl and ethyl esters exert potential antidiabetic effects on glucose and lipid metabolism in cultured murine insulin-sensitive cells through mechanisms implicating activation of AMPK” (Pharmaceutical Biology, 2017).

Experiments:
[1] = system: GLUT1; test: Western immunoblot GLUT1 protein content in L6 myotubes; format: cell-based, rat; details: 50 μM, 18 h
Protocol: L6 cells myotubes, H4IIE cells and 3T3-L1 adipocytes were treated with either CAME, CAEE (50 μM each) or vehicle (DMSO) for 18 h. Insulin (100 nM) or aminoimidazole carboxamide ribonucleotide (AICAR; 1 mM) were added to some vehicle-treated wells 30 min prior to the end of the treatment and served as the positives controls. Protein content was assayed by the bicinchoninic acid method (Thermo Scientific Pierce Protein Research, Rockford, IL) standardized to bovine serum albumin. Western immunoblotting was performed as described elsewhere (Eid et al. [2010]). […] Immunoreactive bands were visualized by enhanced chemiluminescence and quantified by the Scion Image program (Scion Corporation, Frederick, MD). […]
Figure 1. […] Cells were treated as previously described, cell surface GLUT4myc was detected by an enzyme-linked colorimetric assay. […] Results represent the means ± SEM of three independent experiments, and 3-4 cells were analyzed for each condition per experiment. *Indicates a significant (p ≤ 0.05) difference, **(p < 0.01) from the vehicle control group as assessed by ANOVA. […] Data are expressed as (D) phospho-AMPK/β-actin, (E) GLUT4/β-actin and (F) GLUT1/β-actin and are given as mean ± SEM from 3 experiments. *p < 0.05 indicates a significant difference, **(p < 0.01) from the vehicle control group.

[2] = system: C/EBP-β; test: Western immunoblot C/EBP-β in 3T3-L1 adipocytes; format: cell-based, mouse; details: 100 μM (Figure 4 legend)
Protocol: (§1) Insulin (100 nM) or aminoimidazole carboxamide ribonucleotide (AICAR; 1 mM) were added to some vehicle-treated wells 30 min prior to the end of the treatment and served as the positives controls. Protein content was assayed by the bicinchoninic acid method (Thermo Scientific Pierce Protein Research, Rockford, IL) standardized to bovine serum albumin. Western immunoblotting was performed as described elsewhere (Eid et al. [2010]). Membranes were incubated overnight with phospho-AMPK, phospho-Akt, GLUT4, GLUT1 and β-actin antibodies (1:1000 dilution, Cell Signalling Technology, Danvers, MA), or with PPAR-γ, SREBP-1 (1:200, Santa Cruze Biotechnology, Santa Cruz, CA), followed by incubation with HRP-coupled secondary antibody (1:10,000) for 1 h. Immunoreactive bands were visualized by enhanced chemiluminescence and quantified by the Scion Image program (Scion Corporation, Frederick, MD). Experiments were repeated on 3 different passages of cells, each passage containing all conditions in parallel.
(§2) Figure 4. CAME and CAEE inhibit C/EBP-β and PPAR-γ protein expression through mechanisms implicating AMPK pathway. Shown are representative blots of 3T3-adipocytes treated with the maximum nontoxic concentration (100 μM) of either CAME or CAEE. […] Data are expressed as C/EBP-β/β-actin (D), PPAR-γ/β-actin (E), phospho-Akt/pan-Akt (F) and phospho-AMPK/pan-AMPK (G). […]

[3] = system: AMPK; test: Western immunoblot phospho-AMPK in 3T3-L1 adipocytes; format: cell-based, mouse; details: 100 μM (Figure 4 legend), phospho-AMPK/pan-AMPK
Protocol: as §1, §2

[4] = system: C2C12 cells; set-up: method as in Eid et al. [2010]; details: cultured C2C12 cells; ref Eid et al. [2010]; cited from earlier work
[5] = system: C2C12 cells; set-up: method as in Eid et al. [2010]; details: cultured C2C12 cells; ref Eid et al. [2010]; cited from earlier work; remark: listed apart in the source

Compound: COC(=O)/C=C/c1ccc(O)c(O)c1 [CAME, CA methyl ester]
- effect on GLUT1 protein levels [1]: no effect
- protein level of C/EBP-β [2]: significantly reduced
- phospho-AMPK, fold increase over basal levels [3]: 2.4 fold
- glucose uptake [4]: potently enhanced glucose uptake
- toxicity [5]: no or little toxicity

Compound: CCOC(=O)/C=C/c1ccc(O)c(O)c1 [CAEE, caffeic acid ethyl ester]
- effect on GLUT1 protein levels [1]: no effect
- protein level of C/EBP-β [2]: significantly reduced
- phospho-AMPK, fold increase over basal levels [3]: 2.3 fold
- glucose uptake [4]: potently enhanced glucose uptake
- toxicity [5]: no or little toxicity
